System: spores of Aspergillus niger and Aspergillus versicolor
Experiment: ISO 846 Method B: determination of the fungistatic activity of films, complete nutrient medium with carbon source
Assay type: cell-based
Details: summary of ISO 846 loading tests (methods A and B)
Description: Commercially conventional dispersions based on poly(vinyl alcohol)-stabilized poly(dibutyl maleinate-co-vinyl acetate) were, where necessary, set to the required pH using 10% strength sodium hydroxide solution and subsequently finished with fungicide. In addition, to the dispersion was added either a 1% strength ethanolic solution of the fungicide or an aqueous suspension which had been prepared by weighing out exactly 500 mg of fungicide into a 50 ml measuring flask and subsequently making up to 50 ml with deionized water to the calibration mark. After addition, the substance was distributed well in the dispersion and approximately 200 μm thick films were produced using a drawing frame with wet application of 400 μm.
The action of these films on microorganisms was determined using the method ISO 846.
The samples were applied to a complete nutrient medium (with carbon source) and inoculated with a spore suspension of various fungi. […] Method B is intended to reflect the situation of a surface contamination of the sample in practice (such as dirt or organic deposits).
The inoculum in all the determinations was performed using spores of Aspergillus niger and Aspergillus versicolor.
The samples, after expiry of the incubation period of 28 days, were assessed in methods A and B using the following rating key in accordance with ISO 846 (a, b=individual results of duplicate determination).

## Oc1ccc(/C=C/c2cc(O)cc(O)c2)cc1 [trans-resveratrol, trans-3,5,4′-trihydroxystilbene]
  fungicidal activity in polymer dispersions made into films: exhibits fungicidal activity
